Results published in patent US7767240B2, “Microbiological control in poultry processing” (priority 2001, dated 2010).

Key:
total aerobic bacteria = test: Whole bird total aerobic bacteria, chill tank soup at pH 7, 8, 9 (Example 3); assay type: cell-based; conditions: 50 birds per treatment
Procedure: This group of tests was conducted to determine the effect of Clorox® bleach, Aquatize® biocide, and 1,3-dibromo-5,5-dimethylhydantoin (DBDMH) on carcass bacteria (Escherichia coli field strain) residual after 1,5-hour in a chill tank “soup”. Tests were conducted with soups at pH 7, pH 8 and pH 9 (adjusted by trisodium phosphate) for whole bird bacteria counts. Tests at pH 8 were conducted for individual bacteria counts.
In general the tests involved normal processing of 56-day-old birds and immersing the carcasses first in a warm bath containing 10^4 per mL Escherichia coli, 10^4 per mL Salmonella enteritidis, 10^4 per mL Pseudomonas aeruginosa, 10^4 per mL Campylobacter jejuni, and 10^4 per mL spoilage bacteria each from […] strains (Listeria monocytogenes and Shigella sonnei). The carcasses were then immersed in a chill tank “soup”, containing normal organic fluids (blood, fat, skin, and meat particles) and containing the microbiocides on the test.
The procedure used for whole bird wash sampling was as follows: • 1. All samples were kept at ≦50 degrees Fahrenheit following collection. • 2. Microbiological analyses of samples began within 24 hours of sample collection. • 3. Information on the individual sample identification, date of collection, time of collection (phase during shift), treatment group and location of sample point were recorded on each sample bottle. • 4. At each defined sample time, carcasses were taken individually from the processing line wearing latex or rubber gloves. The gloves were rinsed with alcohol between each collection. • 5. Any excess fluid was drained off from the carcass. Each individual carcass was transferred to a sterile stomacher bag. • 6. To each carcass contained in the sterile stomacher bag, 400 mL of Butterfield's Phosphate Diluent (BPD) was added while making sure to pour the BPD into the inside of the carcass cavity. The carcass was rinsed inside and out with a rocking motion for one minute (ca. 35 RPM). This was best done by grasping the broiler carcass with one hand and the closed top of the bag with the other then rocking with a reciprocal motion in a 18-24 inch arc, assuring that all surfaces (interior and exterior of the carcass) were rinsed. • 7. The rinse solutions from each stomacher bag was transferred into the sample bottles, taking care to ensure that the information on the date of collection, time of collection (phase during shift), treatment group and location of sampler point matched that of the sample. • 8. Each bottle was sealed with parafilm and placed into a styrene container with crushed or dry ice or frozen freezer packs for overnight delivery to a testing laboratory. • 9. All filled styrene containers were held in a chilled (not below freezing) area until within 1 to 2 hours of courier collection for shipment.
Aerobic plate counts—Counting rules according to BAM 8th ed., Chapter 3.
In greater detail the trial events and experimental design used in this group of tests were as follows: • a) Test microorganisms used were: • Escherichia coli ATCC 11229 • Pseudomonas aeruginosa ATCC 15442 • Salmonella enteritidis ATCC 13076 • Shigella sonnei ATCC 9290 • Listeria monocytogenes ATCC 7644 • Campylobacter jejuni ATCC 29428 • b) Test Procedure: All test strains were grown individually at 35° C. for 24 hours in the media specified in Table 12. Cells were harvested by centrifugation at 10,000×g for 10 minutes and washed twice with Butterfield's Phosphate Buffer (BPB of pH 7.2). Cells were resuspended in BPB to obtain a cell suspension of approximately 1.0×10^8 CFU/mL for each microorganism. The target inoculum levels were approximately 10^6 CFU/mL in the final test solutions. In the cases of S. enteritidis and P. aeruginosa the species were washed by pouring into prepared sterile centrifuge tubes with cheesecloth filters. […]

Salmonella = Salmonella positive samples, simulated USDA HACCP detection (Example 6); assay type: cell-based, Salmonella enteritidis; conditions: for Salmonella Positive Samples (Number per 51): birds inoculated with Salmonella prior to chilling
Procedure: The objective of this study was to determine the effect of Clorox® bleach and 1,3-dibromo-5,5-dimethylhydantoin (DBDMH) on individual carcass bacteria field strains after 1.5 hour in a chill tank solution and spoilage 20-day shelf life longevity (caused by bacteria contamination) in a Graded Level Study Model. After normal processing of 56-day-old birds, carcasses were immersed first in a warm bath containing 10^4 CFU's per mL Escherichia coli, 10^4 CFU's per mL Salmonella enteritidis, 10^4 CFU's per mL Pseudomonas aeruginosa, 10^4 CFU's per mL Campylobacter jejuni, and 10^4 CFU's per mL spoilage bacteria each from two strains (Listeria monocytogenes and Shigella sonnei). Carcasses were then immersed in a chill tank “soup”, containing normal organic fluids (blood, fat, skin, and meat particles) and containing various disinfectants (termed test materials). These tests were conducted at pH 8 (adjusted by trisodium phosphate). Skin pigmentation (Minolta Color Meter L value or Lightness, a value or redness and b value or yellowness) was determined before and after processing. Post-chilling skin bacteria of various strains were determined over a 20-day period. […] After salmonella infection in chill tanks, USDA HACCP salmonella detection was simulated and reported.
A DBDMH stock solution and DBDMH test solutions of the concentrations specified in Table 33, a bacteria stock solution, and a “chicken soup” were prepared as in Example 3. In addition, the bacterial broth treatments, the whole bird wash sampling procedure, and the methodologies used for quantitative or qualitative determinations for bacterial organisms were conducted as in Example 3.
The trial events and experimental design used in this group of tests were the same as in Example 5 with the following exceptions: • a) The temperature during the 20-day period of storage in the refrigerator was […]. • b) Observations of the degree of “bloating” (defined as water or air additions under the skin area considered objectionable) were conducted on all processed birds. • c) On each of sampling days 0, 2, 4, 6, 8, 10, 12, 14, 16, 18, and 20, ten carcasses from each treatment were analyzed by removing 23.8 cm^2 of skin from the breast right up to the neck using a template and a sterile scalpel. Each skin sample was placed in a bag with 15 mL Butterfield's Phosphate Buffer Solution (BPBS) added and treated in a Stomacher bag for 60 seconds. A 10-fold dilution series of the mixture was made in BPBS and two parallel samples of […] each were spread on the appropriate plate count agar for determination of the total viable numbers. The plates were incubated at 35° C. for 24 hours. Mean values were calculated from the two determinations of the three samples taken from each combination of chilling and storage. Bacterial numbers were reported as pooled or averaged log10 colony-forming units (CFU's) per square centimeter. • d) Also on sampling day 0, 102 total of the remaining 110 carcasses from each treatment (all bloating and oddly processed birds were removed) were “whole bird” washed by the sampling procedure described in Example 3. Salmonella detection were noted and reported as number of positive salmonella colonies per 51 birds and % of total.

CC1(C)C(=O)N(Br)C(=O)N1Br [DBDMH, 1,3-dibromo-5,5-dimethylhydantoin]
Whole Bird Total Aerobic Bacteria (% Reduction) (total aerobic bacteria; Water pH 7, 10 ppm Cl2 equivalent): 85%
Whole Bird Total Aerobic Bacteria (% Reduction) (total aerobic bacteria; Water pH 7, 20 ppm Cl2 equivalent): 99%
Whole Bird Total Aerobic Bacteria (% Reduction) (total aerobic bacteria; Water pH 8, 10 ppm Cl2 equivalent): 82%
Whole Bird Total Aerobic Bacteria (% Reduction) (total aerobic bacteria; Water pH 8, 20 ppm Cl2 equivalent): 98%
Whole Bird Total Aerobic Bacteria (% Reduction) (total aerobic bacteria; Water pH 9, 10 ppm Cl2 equivalent): 78%
Whole Bird Total Aerobic Bacteria (% Reduction) (total aerobic bacteria; Water pH 9, 20 ppm Cl2 equivalent): 96%
Salmonella Positive Samples (Number per 51) (Salmonella; 5 ppm, control 32/51): 7/51
Salmonella Positive Samples (% of total) (Salmonella; 5 ppm, control 62.74%): 13.73%
Salmonella Positive Samples (% of total) (Salmonella; 10 ppm): 7.84%
Salmonella Positive Samples (Number per 51) (Salmonella; 10 ppm): 4/51
Salmonella Positive Samples (% of total) (Salmonella; 15 ppm): 3.92%
Salmonella Positive Samples (Number per 51) (Salmonella; 15 ppm): 2/51
Salmonella Positive Samples (% of total) (Salmonella; 20 ppm): 1.96%
Salmonella Positive Samples (Number per 51) (Salmonella; 20 ppm): 1/51
Salmonella Positive Samples (% of total) (Salmonella; 25 ppm): 0.00%
Salmonella Positive Samples (Number per 51) (Salmonella; 25 ppm): 0/51
